US20020168396A1 (priority 2001, published 2002)
Where “and” joins values, the source holds several entries; their conditions need not be identical. Identical values can stand only once. Like-named read-outs stand apart in the source and are kept apart here.

Key:
[1] = topical vasodilators used to overcome vasospasm; cited from earlier work
[2] = tested on: internal mammary artery (IMA); type: cell-based; set-up: Diameter of the conduit, 0 hrs. / Diameter of the conduit, 2 hrs. / Diameter of the conduit, 12 hrs. / Diameter of the conduit, 24 hrs. / Diameter of the conduit, 48 hrs. / Diameter of the conduit, 72 hrs.: unit not given here
[3] = tested on: radial artery; type: cell-based; set-up: Diameter of the conduit, 0 hrs. / Diameter of the conduit, 2 hrs. / Diameter of the conduit, 12 hrs. / Diameter of the conduit, 24 hrs. / Diameter of the conduit, 72 hrs.: unit not given here
[4] = tested on: saphenous vein; type: cell-based; set-up: Diameter of the conduit, 0 hrs. / Diameter of the conduit, 2 hrs. / Diameter of the conduit, 12 hrs. / Diameter of the conduit, 24 hrs. / Diameter of the conduit, 48 hrs. / Diameter of the conduit, 72 hrs.: unit not given here
[5] = IMA, NTG 0.5 micromol/L, verapamil 100 nanomol/L
[6] = Radial, NTG 0.5 micromol/L, verapamil 100 nanomol/L
[7] = Vein, NTG 0.5 micromol/L, verapamil 100 nanomol/L

COc1ccc(Cc2nccc3cc(OC)c(OC)cc23)cc1OC [papaverine]
increase in free flow [1]: 70%

O=[N+]([O-])OCC(CO[N+](=O)[O-])O[N+](=O)[O-] [NTG, nitroglycerine]
Aug % (maximum increase in diameter at a given time point compared to baseline) [2]: 73% and 50% and 47% | Diameter of the conduit, 0 hrs. [2]: 1.5 and 2.2 and 2.3 | Diameter of the conduit, 2 hrs. [2]: 2.1 and 2.4 and 2.7 | Diameter of the conduit, 12 hrs. [2]: 2.3 and 2.5 and 2.8 | Diameter of the conduit, 24 hrs. [2]: 2.3 and 2.6 | Diameter of the conduit, 48 hrs. [2]: 2.4 and 2.8 and 2.9 | Diameter of the conduit, 72 hrs. [2]: 2.9 and 3.1 and 3.4 | Aug % (maximum increase in diameter at a given time point compared to baseline) [3]: 52% and 44% and 42% | Diameter of the conduit, 0 hrs. [3]: 2.5 and 2.3 and 2.6 | Diameter of the conduit, 2 hrs. [3]: 2.9 and 3.0 and 3.3 | Diameter of the conduit, 12 hrs. [3]: 3.6 and 3.0 and 3.5 | Diameter of the conduit, 24 hrs. [3]: 3.8 and 2.9 and 3.7 | Diameter of the conduit, 48 hrs. [3]: 3.7 | Diameter of the conduit, 72 hrs. [3]: 3.8 and 3.3 and 3.7 | Aug % (maximum increase in diameter at a given time point compared to baseline) [4]: 66% and 67% and 51% | Diameter of the conduit, 0 hrs. [4]: 2.4 and 3.7 and 2.7 | Diameter of the conduit, 2 hrs. [4]: 4.0 and 6.2 | Diameter of the conduit, 12 hrs. [4]: 3.8 and 6.0 and 4.1 | Diameter of the conduit, 24 hrs. [4]: 4.1 and 5.9 and 3.8 | Diameter of the conduit, 48 hrs. [4]: 3.7 and 6.1 and 3.9 | Diameter of the conduit, 72 hrs. [4]: 3.7 and 6.2

COc1ccc(CCN(C)CCCC(C#N)(c2ccc(OC)c(OC)c2)C(C)C)cc1OC (stereo not shown) [verapamil]
Diameter of the conduit, 2 hrs. [2, 5]: 2.4 and 2.1 and 2.7 | Diameter of the conduit, 12 hrs. [2, 5]: 2.6 and 2.4 and 2.8 | Diameter of the conduit, 24 hrs. [2, 5]: 2.5 and 2.3 and 2.9 | Diameter of the conduit, 48 hrs. [2, 5]: 3.0 and 2.5 | Diameter of the conduit, 72 hrs. [2, 5]: 2.9 and 2.7 and 3.1 | Aug % (maximum increase in diameter at a given time point compared to baseline) [2, 5]: 61% and 59% and 64% | Diameter of the conduit, 0 hrs. ([2]; IMA, baseline 0 hrs, Kreb's solution 37° C., NTG 0.5 micromol/L, verapamil 100 nanomol/L): 1.8 and 1.7 and 1.9 | Diameter of the conduit, 2 hrs. [3, 6]: 3.5 and 3.9 and 4.1 | Diameter of the conduit, 12 hrs. [3, 6]: 3.5 and 3.9 | Diameter of the conduit, 24 hrs. [3, 6]: 3.8 | Diameter of the conduit, 48 hrs. [3, 6]: 3.6 and 3.8 | Diameter of the conduit, 72 hrs. [3, 6]: 3.6 and 3.9 | Aug % (maximum increase in diameter at a given time point compared to baseline) [3, 6]: 57% and 62% and 52% | Diameter of the conduit, 0 hrs. ([3]; Radial, baseline 0 hrs, Kreb's solution 37° C., NTG 0.5 micromol/L, verapamil 100 nanomol/L): 2.3 and 2.4 and 2.7 | Diameter of the conduit, 2 hrs. [4, 7]: 5.1 and 5.2 and 5.5 | Diameter of the conduit, 12 hrs. [4, 7]: 4.8 and 5.7 and 5.3 | Diameter of the conduit, 24 hrs. [4, 7]: 5.0 and 5.8 and 5.2 | Diameter of the conduit, 48 hrs. [4, 7]: 4.7 and 5.7 and 5.5 | Diameter of the conduit, 72 hrs. [4, 7]: 4.8 and 5.8 and 5.4 | Aug % (maximum increase in diameter at a given time point compared to baseline) [4, 7]: 70% and 65% and 66% | Diameter of the conduit, 0 hrs. ([4]; Vein, baseline 0 hrs, Kreb's solution 37° C., NTG 0.5 micromol/L, verapamil 100 nanomol/L): 3.0 and 3.5 and 3.3
